According to ChEMBL document CHEMBL1201862, “PubChem BioAssay data set” (2004):
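Exposure lasted 48 hours, with cells grown in 96-well plates and compounds tested at five concentrations. The concentration for 50% growth inhibition is given as GI50.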 The source made the active and inactive calls. Cut-off read from the data, not from the text of the source: active = GI50 up to about 1.1 µM and inactive = higher.

Tests used:
Test in all cases: growth of human tumour cells (NCI), 48 h
SW-620 = test system: SW-620
COLO 205 = test system: COLO 205
SNB-78 = test system: SNB-78
SK-OV-3 = test system: SK-OV-3
RXF 393 = test system: RXF 393
M19-MEL = test system: M19-MEL
DMS-114 = test system: DMS-114
SR = test system: SR
HCT-116 = test system: HCT-116
Malme-3M = test system: Malme-3M
DLD-1 = test system: DLD-1
NCI-H522 = test system: NCI-H522
SF-295 = test system: SF-295
EKVX = test system: EKVX
U-251 = test system: U-251
A549 = test system: A549
IGROV-1 = test system: IGROV-1
SN12C = test system: SN12C
OVCAR-3 = test system: OVCAR-3
SK-MEL-28 = test system: SK-MEL-28
OVCAR-5 = test system: OVCAR-5
HL-60 = test system: HL-60
KM-20L2 = test system: KM-20L2
OVCAR-8 = test system: OVCAR-8
TK-10 = test system: TK-10
LOX IMVI = test system: LOX IMVI
UACC-257 = test system: UACC-257
M14 = test system: M14
KM12 = test system: KM12
UO-31 = test system: UO-31
HOP-62 = test system: HOP-62
HCC 2998 = test system: HCC 2998
786-0 = test system: 786-0
A498 = test system: A498
SK-MEL-2 = test system: SK-MEL-2
NCI-H23 = test system: NCI-H23
RPMI-8226 = test system: RPMI-8226
NCI-H226 = test system: NCI-H226
ACHN = test system: ACHN
HCT-15 = test system: HCT-15
XF498 = test system: XF498
CCRF-CEM = test system: CCRF-CEM
HOP-18 = test system: HOP-18
UACC-62 = test system: UACC-62
SF-268 = test system: SF-268
HT-29 = test system: HT-29
DMS-273 = test system: DMS-273
K562 = test system: K562
SK-MEL-5 = test system: SK-MEL-5
HOP-92 = test system: HOP-92
SNB-19 = test system: SNB-19
MOLT-4 = test system: MOLT-4
SF-539 = test system: SF-539
LXFL 529 = test system: LXFL 529
SNB-75 = test system: SNB-75
OVCAR-4 = test system: OVCAR-4
CAKI-1 = test system: CAKI-1
NCI-H460 = test system: NCI-H460

COc1ccc2c(CN3CCCCC3CO)cc3cc(OC)c(OC)cc3c2c1 (stereo not given) was tested, and the GI50 (SW-620) was 3.88 µM (inactive), the GI50 (COLO 205) was 2.58 µM (inactive) and the GI50 (SNB-78) was 6.93 µM (inactive). For the same molecule, the GI50 (SK-OV-3) was 14.6 µM (inactive), the GI50 (RXF 393) was 6.65 µM (inactive) and the GI50 (M19-MEL) was 3.3 µM (inactive). For the same molecule, the GI50 (DMS-114) was 3.49 µM (inactive), the GI50 (SR) was 3.72 µM (inactive) and the GI50 (HCT-116) was 1.75 µM (inactive). For the same molecule, the GI50 (Malme-3M) was 4.63 µM (inactive), the GI50 (DLD-1) was 6.18 µM (inactive) and the GI50 (NCI-H522) was 2.52 µM (inactive). For the same molecule, the GI50 (SF-295) was 3.02 µM (inactive), the GI50 (EKVX) was 6.41 µM (inactive) and the GI50 (U-251) was 5.85 µM (inactive). The GI50 (A549) was 3.97 µM (inactive), the GI50 (IGROV-1) was 13.2 µM (inactive) and the GI50 (SN12C) was 6.25 µM (inactive). The GI50 (OVCAR-3) was 5.57 µM (inactive), the GI50 (SK-MEL-28) was 6.32 µM (inactive) and the GI50 (OVCAR-5) was 3.1 µM (inactive). For the same molecule, the GI50 (HL-60) was 3.38 µM (inactive), the GI50 (KM-20L2) was 3.64 µM (inactive) and the GI50 (OVCAR-8) was 4.42 µM (inactive). For the same molecule, the GI50 (TK-10) was 4.7 µM (inactive), the GI50 (LOX IMVI) was 3.32 µM (inactive) and the GI50 (UACC-257) was 3.82 µM (inactive). For the same molecule, the GI50 (M14) was 4.74 µM (inactive), the GI50 (KM12) was 4.35 µM (inactive) and the GI50 (UO-31) was 2.87 µM (inactive). For the same molecule, the GI50 (HOP-62) was 6.43 µM (inactive), the GI50 (HCC 2998) was 7.59 µM (inactive) and the GI50 (786-0) was 4.8 µM (inactive). For the same molecule, the GI50 (A498) was 3.59 µM (inactive), the GI50 (SK-MEL-2) was 4.17 µM (inactive) and the GI50 (NCI-H23) was 3.81 µM (inactive). For the same molecule, the GI50 (RPMI-8226) was 3.48 µM (inactive), the GI50 (NCI-H226) was 4.32 µM (inactive) and the GI50 (ACHN) was 3.5 µM (inactive). The GI50 (HCT-15) was 4.38 µM, the GI50 (XF498) was 5.36 µM (inactive) and the GI50 (CCRF-CEM) was 3.56 µM (inactive). The GI50 (HOP-18) was 13.7 µM (inactive), the GI50 (UACC-62) was 10.4 µM (inactive) and the GI50 (SF-268) was 6.28 µM (inactive). The GI50 (HT-29) was 2.43 µM (inactive), the GI50 (DMS-273) was 2.65 µM (inactive) and the GI50 (K562) was 2.59 µM (inactive). For the same molecule, the GI50 (SK-MEL-5) was 7.5 µM (inactive), the GI50 (HOP-92) was 2.1 µM (inactive) and the GI50 (SNB-19) was 4.04 µM (inactive). For the same molecule, the GI50 (MOLT-4) was 2.82 µM (inactive), the GI50 (SF-539) was 4.02 µM (inactive) and the GI50 (LXFL 529) was 4.9 µM (inactive). For the same molecule, the GI50 (SNB-75) was 8.53 µM (inactive).

In the case of COc1ccccc1C1C(Cl)C(=O)N1n1cnc2ccccc2c1=O (stereo not given), the GI50 (SW-620) is reported as > 100 µM (inactive), the GI50 (COLO 205) is reported as > 100 µM (inactive) and the GI50 (SNB-78) is reported as > 100 µM (inactive). The GI50 (SK-OV-3) was > 100 µM (inactive), the GI50 (RXF 393) was > 100 µM (inactive) and the GI50 (M19-MEL) was > 100 µM (inactive). For the same molecule, the GI50 (DMS-114) was > 100 µM (inactive), the GI50 (SR) was 85.9 µM (inactive) and the GI50 (OVCAR-4) was > 100 µM (inactive). For the same molecule, the GI50 (HCT-116) was > 100 µM (inactive), the GI50 (Malme-3M) was > 100 µM (inactive) and the GI50 (DLD-1) was > 100 µM (inactive). The GI50 (NCI-H522) was > 100 µM (inactive), the GI50 (SF-295) was > 100 µM (inactive) and the GI50 (EKVX) was > 100 µM (inactive). The GI50 (U-251) was 48.3 µM (inactive), the GI50 (A549) was > 100 µM (inactive) and the GI50 (IGROV-1) was > 100 µM (inactive). The GI50 (SN12C) was > 100 µM (inactive), the GI50 (OVCAR-3) was > 100 µM (inactive) and the GI50 (SK-MEL-28) was > 100 µM (inactive). For the same molecule, the GI50 (OVCAR-5) was > 100 µM (inactive), the GI50 (HL-60) was > 100 µM (inactive) and the GI50 (KM-20L2) was > 100 µM (inactive). For the same molecule, the GI50 (OVCAR-8) was > 100 µM (inactive), the GI50 (TK-10) was > 100 µM (inactive) and the GI50 (LOX IMVI) was > 100 µM (inactive). For the same molecule, the GI50 (UACC-257) was > 100 µM (inactive), the GI50 (CAKI-1) was > 100 µM (inactive) and the GI50 (M14) was > 100 µM (inactive). The GI50 (KM12) was > 100 µM (inactive), the GI50 (UO-31) was 45.6 µM (inactive) and the GI50 (HOP-62) was > 100 µM (inactive). The GI50 (NCI-H460) was > 100 µM (inactive), the GI50 (HCC 2998) was > 100 µM (inactive) and the GI50 (786-0) was > 100 µM (inactive). For the same molecule, the GI50 (SK-MEL-2) was > 100 µM (inactive), the GI50 (NCI-H23) was > 100 µM (inactive) and the GI50 (RPMI-8226) was > 100 µM (inactive). The GI50 (NCI-H226) was > 100 µM (inactive), the GI50 (ACHN) was > 100 µM (inactive) and the GI50 (HCT-15) was > 100 µM. The GI50 (XF498) was > 100 µM (inactive), the GI50 (CCRF-CEM) was > 100 µM (inactive) and the GI50 (HOP-18) was 39.6 µM (inactive). The GI50 (UACC-62) was > 100 µM (inactive), the GI50 (SF-268) was > 100 µM (inactive) and the GI50 (HT-29) was > 100 µM (inactive). The GI50 (DMS-273) was > 100 µM (inactive), the GI50 (K562) was > 100 µM (inactive) and the GI50 (SK-MEL-5) was > 100 µM (inactive). The GI50 (SNB-19) was 75 µM (inactive), the GI50 (MOLT-4) was > 100 µM (inactive) and the GI50 (LXFL 529) was > 100 µM (inactive). The GI50 (SNB-75) was 40.6 µM (inactive).
